For series [1], the system named is Human immunodeficiency virus 1. The series can be described thus: Antiviral activity against HIV1 3B infected in human MT-2 cells by two fold dilution method in presence of 10% FBS. It counts as functional, organism-based. The note with it: Human immunodeficiency virus 1, 3B, MT2.
Series [2] concerns Human immunodeficiency virus 1. The series can be described thus: Antiviral activity against HIV1 3B infected in human MT-2 cells by two fold dilution method in presence of 10% FBS, HSA and alpha1-AGP. It is filed as functional, organism-based. The note with it: Human immunodeficiency virus 1, 3B, MT2.
The subject of series [3] is Human immunodeficiency virus 1. Put plainly: Antiviral activity against 0.01 MOI HIV1 3B infected in human MT-2 cells by two fold dilution method in presence of 100% human serum. It is filed as functional, organism-based. The note with it: Human immunodeficiency virus 1, 3B, MT2.
Series [4] in a line: Cytotoxicity against human MT4 cells infected with HIV1 3B by three fold dilution method in presence of 10% FBS. It counts as cell-based. The note with it: MT4 cells infected with HIV-1 3B.
Series [5] relates to Human immunodeficiency virus 1. The series can be described thus: Antiviral activity against 0.001 MOI HIV1 BAL infected in human T lymphocyte cells by p24 antigen ELISA in presence of 10% FBS. It is filed as functional, organism-based. As to conditions: Human immunodeficiency virus 1, BAL. A general note: An ELISA detects its analyte on a solid surface through an enzyme-linked reagent.

Series [6] in a line: Selectivity index, ratio of CC50 for human T lymphocyte cells to EC50 for HIV1 BAL in presence of 10% FBS. It counts as toxicity, cell-based.
Series [7] deals with Human immunodeficiency virus 1. Put plainly: Selectivity ratio of EC50 for antiviral activity against NRTI-resistant HIV1 harboring RTK65R mutant gene to EC50 for antiviral activity against wild-type HIV1 3B. It is filed as functional.
In series [8] the test system is Human immunodeficiency virus 1. The series can be described thus: Selectivity ratio of EC50 for antiviral activity against EFV-resistant HIV1 selected after 3 passages to EC50 for antiviral activity against wild-type HIV1 3B. It counts as functional.
Series [9] relates to Human immunodeficiency virus 1. Put plainly: Selectivity ratio of EC50 for antiviral activity against GS-9160-resistant HIV1 selected after 8 passages to EC50 for antiviral activity against wild-type HIV1 3B. It counts as functional.
Series [10] concerns Human immunodeficiency virus 1. Put plainly: Selectivity ratio of EC50 for antiviral activity against HIV1 harboring E138K mutation in catalytic core domain of integrase to EC50 for antiviral activity against wild-type HIV1 3B. It counts as functional.
In series [11] the test system is Human immunodeficiency virus 1. Put plainly: Selectivity ratio of EC50 for antiviral activity against HIV1 harboring E92V and V151A mutation in catalytic core domain of integrase to EC50 for antiviral activity against wild-type HIV1 3B. It counts as functional.
Series [12] relates to Human immunodeficiency virus 1. Put plainly: Antiviral activity against 0.04 MOI HIV1 3B infected in human MT-2 cells by […] dilution method in presence of 100% human serum. The note with it: Human immunodeficiency virus 1, 3B, MT2.
In series [13] the test system is Human immunodeficiency virus 1. Put plainly: Antiviral activity against HIV1 3B infected in human MT-4 cells by two fold dilution method in presence of 10% FBS. It counts as functional, organism-based. As to conditions: Human immunodeficiency virus 1, 3B, MT4.

Each structure is given as a SMILES string. pEC50: −log10 of the molar value.

Take `O=C(NCc1ccc(F)cc1)c1nc(N2CCCCS2(=O)=O)c2cccnc2c1O`: the pEC50 in series [1] is 8.70; in [2] it was 7.37; in series [3], 7.39; in series [5], 8.52; in series [12] it was 6.70. In addition, the CC50 in [4] was found to be 1600 nM. Moreover, the selectivity ratio in [6] is 700. Further, the “Ratio EC50” value in [7] is recorded as 1; in series [8], 1.2; in series [9], 65; in series [10], 8; in series [11], 111.

For `CN(c1c2c(c(O)c3ncccc13)C(=O)N(Cc1ccc(F)cc1)C2)S(C)(=O)=O`, the pEC50 in [1] is 8.68; in series [2], 7.82; in series [3], 7.92; in series [13] it was 9.15; in series [5], 8.82; in series [12], 7.52. In addition, the CC50 in [4] came to 320 nM. The selectivity ratio in series [6] was 2670. Moreover, the “Ratio EC50” value in series [7] is recorded as 1; in [8], 0.9; in series [9], 60; in series [10] it was 12; in series [11] it was 104.

One may read the pEC50 as −log10 of the EC50, conventionally taken in molar units. Usually CC50 stands for the concentration at which the toxic effect on the cells reaches its halfway point.

The values above are taken from ChEMBL document CHEMBL1629647, “Preclinical evaluation of GS-9160, a novel inhibitor of human immunodeficiency virus type 1 integrase” (Antimicrob Agents Chemother, 2009).
